This is an account of results in publication PMC6943670, “Investigating the Binding Mode of Reversible LSD1 Inhibitors Derived from Stilbene Derivatives by 3D-QSAR, Molecular Docking, and Molecular Dynamics Simulation” (Molecules, 2019).

Each structure is given as a SMILES string. Where two headings read alike, the source gives them in different places.

In series [1] the target is T1, LSD1 (Homo sapiens, UniProt O60341). Kind of series: LSD1 enzyme inhibition assay (H3K4me2 substrate, Amplex Red/HRP fluorescence).
Series [2] concerns the target T1, LSD1. Particulars: cited from earlier work.
Series [3] concerns the target T1, LSD1. More on the design: method as in PMID 30448189. Particulars: cited from earlier work.

On to `O=C(NO)c1ccc(/C=C/c2ccc3c(c2)CCO3)cc1` [Compound 33], for which the melting point (as a rule, the temperature of the solid-liquid transition) is 193 to 194 °C. Besides, it took 1930 nM to reach half-maximal inhibition in series [1] (IC50). Taken in the same sequence, the figures for `O=C(NO)c1ccc(/C=C/c2cc(F)cc(F)c2)cc1` [Compound 31] were 266 to 267 °C and 1300 nM. The compound `COc1cc(Br)c(/C=C/c2ccc(C(=O)NO)cc2)cc1OC` gave a melting point of 163 to 164 °C.

Compound `COc1cc(/C=C/c2ccc(/C=C/C(=O)NO)cc2)cc(OC)c1` [Compound 26] yielded a melting point of 149 to 150 °C. Also, 5180 nM corresponded to half-maximal inhibition in series [1] (IC50). With `Cc1ccc(-c2ncc(OC[C@@H]3CCNC3)cc2-c2ccc(C#N)cc2)cc1` [GSK-354], in series [2] (reversible LSD1 inhibitor), the half-inhibitory concentration (IC50) (commonly the midpoint of a concentration-inhibition curve) was 90 nM. `COc1cc(F)c(/C=C/c2ccc(C(=O)NO)cc2)cc1OC` had a melting point of 159 to 160 °C. `N/C(=N\O)c1cccc(/C=C/c2ccnc(-c3cc(F)ccc3O)c2)c1` [Compound 22]: the “binding site by enzyme kinetics studies” value in series [3] is “FAD region”. Compound `COc1ccc(/C=C/c2ccc(/C=C/C(=O)NO)cc2)cc1OC` [Compound 24] gave a melting point of 205 to 206 °C. In addition, the half-maximal inhibitory concentration (IC50) in series [1] came out at 4160 nM. Consider `COc1ccc(/C=C/c2ccc(C(=O)NO)cc2)cc1OC` [Compound 30], for which the melting point lay in the range of 197 to 198 °C. The same compound yielded an IC50 in series [1] of 816 nM. For `C#CCN(C)Cc1ccccc1` [pargyline], the “inhibitory effect on LSD1” value in series [2] (MAO inhibitors bonding covalently with FAD) is reported as “no significant inhibitory effect”. Moreover, the selectivity entry in series [2] (MAO inhibitors) is listed as “poor selectivity”. `COc1cc(/C=C/c2ccc(C(=O)NO)cc2)cc(OC)c1` [Compound 29] registered an IC50 in series [1] of 692 nM. Take `O=C(O)c1ccc(CN2CCC(CN[C@@H]3C[C@H]3c3ccccc3)CC2)cc1` [GSK2879552]: the IC50 in series [2] (inhibition of LSD1) was 20 nM. `COc1cc(Br)c(/C=C/c2ccc(/C=C/C(=O)NO)cc2)cc1OC` [Compound 27] showed a melting point of 120 to 121 °C. In series [1], this compound came in with an IC50 of 3980 nM. As to `COc1cc(F)c(/C=C/c2ccc(/C=C/C(=O)NO)cc2)cc1OC` [Compound 25], the melting point lay in the range of 185 to 186 °C. For the same compound, the concentration for half-maximal inhibition (IC50) in series [1] was found to be 3320 nM.
